Source: ChEMBL document CHEMBL6109070, “Fatty acid conjugated BimBH3 analogues with d‑amino acid substitution as PTPN1 inhibitors with enhanced activity, biostability and orally available potency for the treatment of diabetes” (Bioorg Med Chem, 2025)

Experiments:
[1] = molecular target: T1, Tyrosine-protein phosphatase non-receptor type 1 (Homo sapiens, UniProt P18031); assay: Inhibition of recombinant human PTPN1 using p-nitrophenyl phosphate as substrate by spectrophotometric analysis
T1 sequence (P18031 whole entry): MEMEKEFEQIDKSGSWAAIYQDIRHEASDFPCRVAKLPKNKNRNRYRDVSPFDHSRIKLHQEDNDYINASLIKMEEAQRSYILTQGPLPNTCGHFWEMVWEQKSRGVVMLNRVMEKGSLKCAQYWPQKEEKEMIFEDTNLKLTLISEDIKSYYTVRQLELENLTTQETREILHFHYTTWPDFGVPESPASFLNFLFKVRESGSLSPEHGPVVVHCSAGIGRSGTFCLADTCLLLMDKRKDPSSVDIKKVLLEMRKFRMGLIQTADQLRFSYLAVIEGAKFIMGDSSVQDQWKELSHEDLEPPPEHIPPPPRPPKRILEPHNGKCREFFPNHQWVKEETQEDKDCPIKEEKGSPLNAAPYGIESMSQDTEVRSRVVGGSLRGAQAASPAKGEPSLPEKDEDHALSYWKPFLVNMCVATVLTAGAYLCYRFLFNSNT

[2] = Stability in rat plasma assessed as half life; assay type: ADME, cell-free
pepsin = assay: Proteolytic stability of compound assessed as pepsin (unknown origin)-mediated drug degradation at 40 mM by measuring half life measured after 24 hrs by RP-HPLC analysis; assay type: ADME; details: human
[3] = molecular target: T2, Tyrosine-protein phosphatase non-receptor type 1 (Homo sapiens) (UniProt P18031); assay: Binding affinity to PTPN1 (unknown origin) assessed as observed […] rate constant (Kobs) by Bio-Layer Interferometric analysis
T2 sequence (whole entry): T1 sequence (P18031 whole entry)

[4] = molecular target: T2, Tyrosine-protein phosphatase non-receptor type 1 (Homo sapiens); assay: Binding affinity to PTPN1 (unknown origin) assessed as association rate constant (Kon) by Bio-Layer Interferometric analysis
[5] = molecular target: T1, Tyrosine-protein phosphatase non-receptor type 1; assay: Binding affinity to PTPN1 (unknown origin) assessed as equilibrium dissociation constant (Kd) by Bio-Layer Interferometric analysis
proteinase K = assay: Proteolytic stability of compound assessed as proteinase K (unknown origin)-mediated drug degradation at 0.4 mM by measuring half life measured after 24 hrs by RP-HPLC analysis; assay type: ADME; details: human
chymotrypsin = assay: Proteolytic stability of compound assessed as chymotrypsin (unknown origin)-mediated drug degradation at 0.6 mM by measuring half life measured after 24 hrs by RP-HPLC analysis; assay type: ADME; details: human
[6] = molecular target: DPP-4 (dipeptidyl peptidase 4) (Homo sapiens, UniProt P27487); assay: Stability of compound assessed as DPP-4 (unknown origin)-mediated drug degradation by measuring half life measured for 10 mins by RP-HPLC analysis; assay type: ADME
[7] = molecular target: T2, Tyrosine-protein phosphatase non-receptor type 1 (Homo sapiens); assay: Binding affinity to PTPN1 (unknown origin) assessed as dissociation rate constant (Koff) by Bio-Layer Interferometric analysis
Mus musculus [8] = assay: Anti-diabetic activity in male Kunming mouse assessed as reduction in area under the curve of blood glucose at 0.1 microM/Kg, sc measured for 0 to 120 mins by GTT; assay type: functional; parameters: scale not given: the % may be the effect or the level left; details: time 0-120 min, at 0.1 µmol/kg
Mus musculus [9] = assay: Anti-diabetic activity in male Kunming mouse assessed as reduction in area under the curve of blood glucose at 10 mg/kg, po measured for 0 to 180 mins by GTT; assay type: functional; parameters: scale not given: the % may be the effect or the level left; details: time 0-180 min
Mus musculus [10] = assay: Anti-diabetic activity in male Kunming mouse assessed as reduction in area under the curve of blood glucose at 40 mg/kg, po measured for 0 to 180 mins by GTT; assay type: functional; parameters: scale not given: the % may be the effect or the level left; details: time 0-180 min
[11] = Toxicity in male Kunming mouse assessed as reduction in body weight at 0.2 microM/Kg, sc administered daily for 7 days and measured on day 1; assay type: organism-based; details: in vivo, 24 h, time 1 day
[12] = Toxicity in male Kunming mouse assessed as change in body weight at 0.2 microM/Kg, sc administered daily for 7 days and measured from day 2 to 7; assay type: organism-based; details: in vivo, 144 h, time 6 day
Mus musculus [13] = assay: Anti-diabetic activity in male Kunming mouse assessed as reduction in area under the curve of blood glucose at 0.2 microM/Kg, sc measured for 0 to 120 mins by GTT; assay type: functional; parameters: scale not given: the % may be the effect or the level left; details: time 0-120 min, at 0.2 µmol/kg
Mus musculus [14] = assay: Anti-diabetic activity in male Kunming mouse assessed as reduction in area under the curve of blood glucose at 0.05 microM/Kg, sc measured for 0 to 120 mins by GTT; assay type: functional; parameters: scale not given: the % may be the effect or the level left; details: time 0-120 min, at 0.05 µmol/kg
Mus musculus [15] = assay: Anti-diabetic activity in male Kunming mouse assessed as reduction in area under the curve of blood glucose at 20 mg/kg, po measured for 0 to 180 mins by GTT; assay type: functional; parameters: scale not given: the % may be the effect or the level left; details: time 0-180 min

Chain of DPP-4 (dipeptidyl peptidase 4) (P27487 whole entry): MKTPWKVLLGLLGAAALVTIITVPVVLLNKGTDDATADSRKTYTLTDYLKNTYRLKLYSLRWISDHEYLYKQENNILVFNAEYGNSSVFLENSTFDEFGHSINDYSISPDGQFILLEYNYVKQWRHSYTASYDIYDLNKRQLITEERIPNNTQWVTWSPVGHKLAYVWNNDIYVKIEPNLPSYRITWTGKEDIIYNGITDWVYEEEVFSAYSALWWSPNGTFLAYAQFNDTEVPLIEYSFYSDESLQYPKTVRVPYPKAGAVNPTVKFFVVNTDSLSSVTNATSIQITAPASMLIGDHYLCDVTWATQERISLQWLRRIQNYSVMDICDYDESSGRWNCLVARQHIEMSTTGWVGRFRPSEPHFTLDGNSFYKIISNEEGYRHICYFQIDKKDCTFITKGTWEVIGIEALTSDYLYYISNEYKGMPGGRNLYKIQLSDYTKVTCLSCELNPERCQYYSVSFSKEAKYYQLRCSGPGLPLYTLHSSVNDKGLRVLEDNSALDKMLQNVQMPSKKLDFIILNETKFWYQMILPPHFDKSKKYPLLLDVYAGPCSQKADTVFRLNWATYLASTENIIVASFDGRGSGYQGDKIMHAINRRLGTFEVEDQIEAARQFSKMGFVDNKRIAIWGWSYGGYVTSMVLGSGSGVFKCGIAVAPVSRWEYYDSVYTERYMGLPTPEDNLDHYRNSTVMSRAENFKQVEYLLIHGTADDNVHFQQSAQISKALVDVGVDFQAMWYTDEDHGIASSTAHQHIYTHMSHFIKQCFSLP

SMILES	IC50 [1] [nM]	half-life [2] [h]	half-life at 40000 µM (pepsin) [h]	Kobs [3]	K [4]	Kd [5] [nM]	half-life at 400 µM (proteinase K) [h]	half-life at 600 µM (chymotrypsin) [h]	half-life [6] [h]	K [7]	Activity (Mus musculus [8]) [%]	Activity (Mus musculus [9]) [%]	Activity (Mus musculus [10]) [%]	Activity [11]	Activity [12]	Activity (Mus musculus [13]) [%]	Activity (Mus musculus [14]) [%]	Activity (Mus musculus [15]) [%]
CCCCCCCCCCCCCCCC(=O)N[C@H](C(=O)N[C@H](CCC(N)=O)C(=O)N[C@@H](CCC(N)=O)C(=O)N[C@@H](CCC(=O)O)C(=O)N[C@@H](CC(C)C)C(=O)N[C@@H](CCCNC(=N)N)C(=O)N[C@@H](CCCNC(=N)N)C(=O)N[C@H](C(=O)NCC(=O)N[C@@H](CC(=O)O)C(=O)N[C@@H](CCC(=O)O)C(=O)N[C@@H](Cc1ccccc1)C(=O)O)[C@@H](C)CC)[C@@H](C)CC	4210	–	–	–	–	–	–	–	–	–	–	–	–	–	–	–	–	–
CCCCCCCCCCCCCCCC(=O)N[C@H](C(=O)N[C@@H](C)C(=O)N[C@@H](CCC(N)=O)C(=O)N[C@@H](CCC(=O)O)C(=O)N[C@@H](CC(C)C)C(=O)N[C@@H](CCCNC(=N)N)C(=O)N[C@@H](CCCNC(=N)N)C(=O)N[C@H](C(=O)NCC(=O)N[C@@H](CC(=O)O)C(=O)N[C@@H](CCC(=O)O)C(=O)N[C@@H](Cc1ccccc1)C(=O)O)[C@@H](C)CC)[C@@H](C)CC	–	10.6	2.7	7.3 10^-3No_unit	2.35 10^2/Ms	2820	2.65	0.556	3.68	6.65 10^-3/s	–	–	–	–	–	–	–	–
CCCCCCCCCCCCCCCC(=O)N[C@H](C(=O)N[C@@H](C)C(=O)N[C@H](CCC(N)=O)C(=O)N[C@@H](CCC(=O)O)C(=O)N[C@@H](CC(C)C)C(=O)N[C@@H](CCCNC(=N)N)C(=O)N[C@@H](CCCNC(=N)N)C(=O)N[C@H](C(=O)NCC(=O)N[C@@H](CC(=O)O)C(=O)N[C@@H](CCC(=O)O)C(=O)N[C@@H](Cc1ccccc1)C(=O)O)[C@@H](C)CC)[C@@H](C)CC	855	–	1.13	–	–	–	3.21	1.86	1.42	–	–	–	–	–	–	–	–	–
CCCCCCCCCCCCCCCC(=O)N[C@H](C(=O)N[C@@H](C)C(=O)N[C@@H](CCC(N)=O)C(=O)N[C@@H](CCC(=O)O)C(=O)N[C@@H](CC(C)C)C(=O)N[C@@H](CCCNC(=N)N)C(=O)N[C@H](CCCNC(=N)N)C(=O)N[C@H](C(=O)NCC(=O)N[C@@H](CC(=O)O)C(=O)N[C@@H](CCC(=O)O)C(=O)N[C@@H](Cc1ccccc1)C(=O)O)[C@@H](C)CC)[C@@H](C)CC	1640	–	–	–	–	–	–	–	–	–	–	–	–	–	–	–	–	–
CCCCCCCCCCCCCCCC(=O)N[C@H](C(=O)N[C@H](CCCCN)C(=O)N[C@@H](CCC(N)=O)C(=O)N[C@@H](CCC(=O)O)C(=O)N[C@@H](CC(C)C)C(=O)N[C@@H](CCCNC(=N)N)C(=O)N[C@@H](CCCNC(=N)N)C(=O)N[C@H](C(=O)NCC(=O)N[C@@H](CC(=O)O)C(=O)N[C@@H](CCC(=O)O)C(=O)N[C@@H](Cc1ccccc1)C(=O)O)[C@@H](C)CC)[C@@H](C)CC	2140	–	–	–	–	–	–	–	–	–	–	–	–	–	–	–	–	–
CCCCCCCCCCCCCCCC(=O)N[C@H](C(=O)N[C@H](Cc1cnc[nH]1)C(=O)N[C@@H](CCC(N)=O)C(=O)N[C@@H](CCC(=O)O)C(=O)N[C@@H](CC(C)C)C(=O)N[C@@H](CCCNC(=N)N)C(=O)N[C@@H](CCCNC(=N)N)C(=O)N[C@H](C(=O)NCC(=O)N[C@@H](CC(=O)O)C(=O)N[C@@H](CCC(=O)O)C(=O)N[C@@H](Cc1ccccc1)C(=O)O)[C@@H](C)CC)[C@@H](C)CC	871	–	1.14	–	–	–	3.79	2.9	–	–	–	–	–	–	–	–	–	–
CCCCCCCCCCCCCCCC(=O)N[C@H](C(=O)N[C@H](Cc1ccc(O)cc1)C(=O)N[C@@H](CCC(N)=O)C(=O)N[C@@H](CCC(=O)O)C(=O)N[C@@H](CC(C)C)C(=O)N[C@@H](CCCNC(=N)N)C(=O)N[C@@H](CCCNC(=N)N)C(=O)N[C@H](C(=O)NCC(=O)N[C@@H](CC(=O)O)C(=O)N[C@@H](CCC(=O)O)C(=O)N[C@@H](Cc1ccccc1)C(=O)O)[C@@H](C)CC)[C@@H](C)CC	461	98.6	1.78	8.87 10^-3No_unit	4.4 10^2/Ms	447	8.66	0.115	13.6	7.35 10^-5/s	–	–	–	–	–	–	–	–

The remaining compounds from weak to strong by IC50 [1], led by results:

IC50 [1] [nM]	half-life [2] [h]	half-life at 40000 µM (pepsin) [h]	Kobs [3]	K [4]	Kd [5] [nM]	half-life at 400 µM (proteinase K) [h]	half-life at 600 µM (chymotrypsin) [h]	half-life [6] [h]	K [7]	SMILES	Activity (Mus musculus [8]) [%]	Activity (Mus musculus [9]) [%]	Activity (Mus musculus [10]) [%]	Activity [11]	Activity [12]	Activity (Mus musculus [13]) [%]	Activity (Mus musculus [14]) [%]	Activity (Mus musculus [15]) [%]
4410	–	–	–	–	–	–	–	–	–	CCCCCCCCCCCCCCCC(=O)N[C@H](C(=O)N[C@H](CO)C(=O)N[C@@H](CCC(N)=O)C(=O)N[C@@H](CCC(=O)O)C(=O)N[C@@H](CC(C)C)C(=O)N[C@@H](CCCNC(=N)N)C(=O)N[C@@H](CCCNC(=N)N)C(=O)N[C@H](C(=O)NCC(=O)N[C@@H](CC(=O)O)C(=O)N[C@@H](CCC(=O)O)C(=O)N[C@@H](Cc1ccccc1)C(=O)O)[C@@H](C)CC)[C@@H](C)CC	–	–	–	–	–	–	–	–
805	70.7	1.17	6.14 10^-3No_unit	2.78 10^2/Ms	2110	12.3	0.163	7.12	5.85 10^-3/s	CCCCCCCCCCCCCCCC(=O)N[C@H](C(=O)N[C@@H](C(=O)N[C@@H](CCC(N)=O)C(=O)N[C@@H](CCC(=O)O)C(=O)N[C@@H](CC(C)C)C(=O)N[C@@H](CCCNC(=N)N)C(=O)N[C@@H](CCCNC(=N)N)C(=O)N[C@H](C(=O)NCC(=O)N[C@@H](CC(=O)O)C(=O)N[C@@H](CCC(=O)O)C(=O)N[C@@H](Cc1ccccc1)C(=O)O)[C@@H](C)CC)C(C)C)[C@@H](C)CC	–	–	–	–	–	–	–	–
395	102	2.42	6.69 10^-3No_unit	3.27 10^2/Ms	167	15	1.72	3.61	1.46 10^-4/s	CCCCCCCCCCCCCCCC(=O)N[C@H](C(=O)N[C@H](C)C(=O)N[C@@H](CCC(N)=O)C(=O)N[C@@H](CCC(=O)O)C(=O)N[C@@H](CC(C)C)C(=O)N[C@@H](CCCNC(=N)N)C(=O)N[C@@H](CCCNC(=N)N)C(=O)N[C@H](C(=O)NCC(=O)N[C@@H](CC(=O)O)C(=O)N[C@@H](CCC(=O)O)C(=O)N[C@@H](Cc1ccccc1)C(=O)O)[C@@H](C)CC)[C@@H](C)CC	–	–	–	–	–	–	–	–
294	101	1.42	3.31 10^-2No_unit	1.65 10^3/Ms	15.1	8.87	0.712	2.87	2.5 10^-5/s	CCCCCCCCCCCCCCCC(=O)N[C@H](C(=O)N[C@@H](C)C(=O)N[C@@H](CCC(N)=O)C(=O)N[C@@H](CCC(=O)O)C(=O)N[C@@H](CC(C)C)C(=O)N[C@@H](CCCNC(=N)N)C(=O)N[C@@H](CCCNC(=N)N)C(=O)N[C@@H](C(=O)NCC(=O)N[C@@H](CC(=O)O)C(=O)N[C@@H](CCC(=O)O)C(=O)N[C@@H](Cc1ccccc1)C(=O)O)[C@@H](C)CC)[C@@H](C)CC	15.6	4.6	15.4	~ 1 g	Non-toxic	26.2	7.1	8
